Source: patent US20090088380A1, “GHRH ANALOGS AND THERAPEUTIC USES THEREOF” (priority 2007, published 2009)
Non-standard residues stand in square brackets, D forms with d. Residues, ends and D or L forms follow the SMILES beside them.

Tests used:
[1] = In vitro proteolysis assay in rat serum; format: in vitro ADME
Description: Proteolysis was stopped by adding 800 μl of ice-cold stop buffer (potassium-phosphate buffer, acidified to pH 0.8 with trifluoroacetic acid (TFA) and boiling 5 min (rat serum only). After centrifugation (12000 g, 5 min, 4° C.) (rat serum only), serum-peptide mixtures were passed through a conditioned Sep-Pak C-18 cartridge to extract native GHRH or a GHRH analog residual concentrations from serum proteins. The native GHRH or the analog was eluted in 2 ml of 50% acetonitrile-0.01% TFA/50% 0.01% aqueous TFA. 200 μl of extracted peptide, representing 1 μg of GHRH or analog at time 0, was quantified by analytical HPLC, using one μ-Bondapak C18 column (10 μm particle size, 0.39×15 cm) (rat serum) or two C18 columns in series (human serum and plasma) and a binary solvent system composed of NaClO4 0.01 M, pH 2.5 and acetonitrile. A linear gradient from 30 to 60% acetonitrile over 45 min (rat serum) or 30 to 50% (human serum and plasma) was used. Elution of intact peptide was monitored at 214 nm and residual concentration determined by assessment of peak surface areas.

[2] = test system: malnourished subjects with CKD; assay: Phase II CKD: abnormal and clinically significant clinical chemistry and blood gas values; format: in vivo, human; details: for Subjects with abnormal and clinically significant ALT (%) / Subjects with abnormal and clinically significant AST (%) / Subjects with abnormal and clinically significant Calcium (%) / Subjects with abnormal and clinically significant Chloride (%) / Subjects with abnormal and clinically significant Creatinine (%) / Subjects with abnormal and clinically significant GGT (%) / Subjects with abnormal and clinically significant Phosphate (%) / Subjects with abnormal and clinically significant Potassium (%) / Subjects with abnormal and clinically significant Sodium (%) / Subjects with abnormal and clinically significant Urea (%): safety analysis set
Description: The number of subjects with abnormal and clinically significant laboratory values at baseline and at Day 28 is presented in Table 35 (haematology) and Table 36 clinical chemistry. Overall, the number of subjects with abnormal and clinically significant laboratory values was similar in the GHRH(1-29)NH2 synthetic analog and placebo groups. No clear trends were observed.

GH and IGF-1 secretion = assay: Phase I/II study in healthy male volunteers: GH and IGF-1 secretion; format: in vivo, human
Description: The primary objectives of the Phase I/II study were to assess safety and tolerability of escalating doses of the GHRH(1-29)NH2 synthetic analog (Maximal Tolerated Dose—MTD) and to determine the minimal effective dose (MED) of the GHRH(1-29)NH2 synthetic analog in terms of stimulation of GH and IGF-1 secretion. The secondary objectives were to establish the lowest dose of the GHRH(1-29)NH2 synthetic analog that induces maximal response with a single subcutaneous administration into healthy male volunteers, to determine the MED for subsequent studies and to establish the most representative blood sampling time for evaluation of GH secretion profile after GHRH(1-29)NH2 synthetic analog administration to be used in subsequent studies.
It was a crossover single-blinded Phase I/II trial of escalating doses of the GHRH(1-29)NH2 synthetic analog controlled versus placebo. Ten healthy middle-aged male volunteers, between 50 and 55 years old, were recruited. All 10 subjects received a single subcutaneous dose of the GHRH(1-29)NH2 synthetic analog (reconstituted in water for injection), per day for 5 days, in a dose range from 5 to 25 μg/kg of body weight (lower than the maximal dose used to treat GH deficiency in children, which was 30 μg/kg of body weight).
Each volunteer was hospitalized for 6 days. All volunteers were randomized into 5 groups (2 volunteers per group). During the first 24 hours of hospitalization (Day 0), scheduled blood samples were obtained for GH and IGF-1 assessment (GH and IGF-1 baseline sampling) and then from Day 1 until Day 5, following each GHRH(1-29)NH2 synthetic analog or placebo dose administration, according to the established randomization plan.
Once the volunteers were considered eligible, they were hospitalized for a period of 5 consecutive days. On Day 0 of admission successive samples of blood were taken to perform the basal secretion profile of GH during 24 hours. During 5-day hospitalization period, after the initial blood sampling to determine fasting glucose level, the appropriate dose of the GHRH(1-29)NH2 synthetic analog or placebo was administered and multiple samplings were performed to assess the profile of GH, postprandial glucose level and electrocardiogram after 60 minutes of the application of the GHRH(1-29)NH2 synthetic analog/placebo. Eight hours after drug administration, samples were obtained to determine IGF-1 level, thyroid hormones and routine analysis. After 30 days of admission, all the volunteers returned for new clinical evaluation to record any adverse events that could have occurred from the last day of hospitalization period and to take a blood sample for later determination of anti-GHRH(1-29)NH2 synthetic analog antibodies.
Serum human GH was measured by using a commercial DSL-1900 ACTIVE® Human Growth Hormone Coated-Tube Immunoradiometric Assay Kit purchased from Diagnostic Systems Laboratories, Inc., Texas, USA. Serum IGF-1 was measured using DSL-9400 ACTIVE® Free Insulin-Like Growth Factor-I Coated-Tube IRMA Kit purchased from Diagnostic Systems Laboratories.
To determine MED, GH secretion curves were drawn and the area under the curve (AUC) calculated for each study drug dose.

## CC[C@H](C)[C@H](NC(=O)[C@H](C)NC(=O)[C@H](CC(=O)O)NC(=O)[C@@H](C)NC(=O)[C@@H](N)Cc1ccc(O)cc1)C(=O)N[C@@H](Cc1ccccc1)C(=O)N[C@H](C(=O)N[C@@H](CC(N)=O)C(=O)N[C@@H](CO)C(=O)N[C@H](Cc1ccc(O)cc1)C(=O)N[C@@H](CCCNC(=N)N)C(=O)N[C@@H](CCCCN)C(=O)N[C@H](C(=O)N[C@@H](CC(C)C)C(=O)N[C@H](C)C(=O)N[C@@H](CCC(N)=O)C(=O)N[C@@H](CC(C)C)C(=O)N[C@@H](CO)C(=O)N[C@@H](C)C(=O)N[C@@H](CCCNC(=N)N)C(=O)N[C@@H](CCCCN)C(=O)N[C@@H](CCCCN)C(=O)N[C@@H](CC(C)C)C(=O)N[C@@H](CCC(N)=O)C(=O)N[C@@H](CC(=O)O)C(=O)N[C@H](C(=O)N[C@@H](CCSC)C(=O)N[C@@H](CO)C(=O)N[C@@H](CCCNC(=N)N)C(N)=O)[C@@H](C)CC)C(C)C)[C@@H](C)O [GHRH analog #5, [D-Ala^2, D-Tyr^10, D-Ala^15, Lys^22] hGHRH(1-29)-NH2] (H-Y[dA]DAIFTNS[dY]RKVL[dA]QLSARKKLQDIMSR-NH2)
[1]; compared to hGHRH(1-29)-NH2
  Relative resistance to proteolysis in vitro: 3.13
[1]; incubation 0 min
  Residual concentration (% of initial concentration): 100 ± 0 % of initial concentration
[2]; Baseline
  Subjects with abnormal and clinically significant ALT (%): (0.0%)
  Subjects with abnormal and clinically significant AST (%): (0.0%)
  Subjects with abnormal and clinically significant Calcium (%): (0.0%)
  Subjects with abnormal and clinically significant Chloride (%): (0.0%)
  Subjects with abnormal and clinically significant Creatinine (%): (100.0%)
  Subjects with abnormal and clinically significant GGT (%): (0.0%)
  Subjects with abnormal and clinically significant Phosphate (%): (7.7%)
  Subjects with abnormal and clinically significant Potassium (%): (30.8%)
  Subjects with abnormal and clinically significant Sodium (%): (0.0%)
  Subjects with abnormal and clinically significant Urea (%): (100.0%)
[2]; Day 28
  Number of subjects with abnormal and clinically significant bicarbonate: 3 subjects
  Number of subjects with abnormal and clinically significant calcium: 3 subjects
  Subjects with abnormal and clinically significant ALT (%): (8.3%)
  Subjects with abnormal and clinically significant AST (%): (8.3%)
  Subjects with abnormal and clinically significant Calcium (%): (25.0%)
  Subjects with abnormal and clinically significant Chloride (%): (0.0%)
  Subjects with abnormal and clinically significant Creatinine (%): (100.0%)
  Subjects with abnormal and clinically significant GGT (%): (8.3%)
  Subjects with abnormal and clinically significant Phosphate (%): (16.7%)
  Subjects with abnormal and clinically significant Potassium (%): (25.0%)
  Subjects with abnormal and clinically significant Sodium (%): (0.0%)
  Subjects with abnormal and clinically significant Urea (%): (100.0%)
[2]; baseline
  Number of subjects with abnormal and clinically significant bicarbonate: 2 subjects
  Number of subjects with abnormal and clinically significant calcium: none
GH and IGF-1 secretion; 5 μg/kg body weight
  AUC of GH level in the first 12 hours: 61.76
GH and IGF-1 secretion; 10 μg/kg body weight
  AUC of GH level in the first 12 hours: 71.25
GH and IGF-1 secretion; 15 μg/kg body weight
  AUC of GH level in the first 12 hours: 135.17
GH and IGF-1 secretion; 25 μg/kg body weight
  AUC of GH level in the first 12 hours: 149.48
GH and IGF-1 secretion; Day 1 of treatment
  IGF-1 mean level: 156 ng/mL
GH and IGF-1 secretion; Day 5 of treatment
  IGF-1 mean level: 231 ng/mL
GH and IGF-1 secretion; any dose
  GH levels compared to placebo: unequivocally higher at any dose
